Reference: US5328902A, “7-(substituted)-9-[(substituted glycyl)amido]-6-demethyl-6-deoxytetracyclines” (American Cyanamid Co., priority 1992, dated 1994)
In brackets after ≈: the same amount, converted by molar mass. Read-outs that look alike come from different tables or passages of the source.

Key:
Type in all cases: cell-based
E. coli UBMS 88-1 Tet B = assay: microbe, parasite or virus in culture
E. coli J3272 Tet sens. = assay: MIC, agar dilution
E. coli PRP1 Tet A = assay: microbe, parasite or virus in culture
[1] = tested on: E. coli MC 4100 TNIOC Tet B; assay: microbe, parasite or virus in culture
E. coli J3272 Tet C = assay: microbe, parasite or virus in culture
E. coli UBMS 89-1 Tet M = assay: microbe, parasite or virus in culture
[2] = tested on: E. coli UBMS 89-2 Tet sens.; assay: MIC, agar dilution
E. coli J2175 = assay: MIC, agar dilution
E. coli BAJ9003 IMP MUT = assay: microbe, parasite or virus in culture
E. coli UBMS 90-5 = assay: MIC, agar dilution
E. coli #311 (MP) = assay: MIC, agar dilution
E. coli ATCC 25922 = assay: MIC, agar dilution
E. coli J3272 Tet D = assay: microbe, parasite or virus in culture
S. mariescens FPOR 8733 = assay: MIC, agar dilution
[3] = tested on: Ps. acruginosa ATCC 27853; assay: MIC, agar dilution
S. aureus NEMC 8769 = assay: MIC, agar dilution
S. aureus UBMS 88-4 = assay: MIC, agar dilution
[4] = tested on: S. aureus UBMS 88-5 Tet M; assay: microbe, parasite or virus in culture
[5] = tested on: S. aureus UBMS 88-7 Tet K; assay: microbe, parasite or virus in culture
[6] = tested on: S. aureus UBMS 90-1 Tet M; assay: microbe, parasite or virus in culture
S. aureus UBMS 90-3 = assay: MIC, agar dilution
[7] = tested on: S. aureus UBMS 90-2 Tet M; assay: microbe, parasite or virus in culture
S. aureus IVES 2943 = assay: MIC, agar dilution
S. aureus ROSE (MP) = assay: MIC, agar dilution
S. aureus SMITH (MP) = assay: MIC, agar dilution
S. aureus IVES 1 983 = assay: MIC, agar dilution
S. aureus ATCC 29213 = assay: MIC, agar dilution
[8] = tested on: S. hemolyticus AVHAH 88-3; assay: MIC, agar dilution
E. faecalis ATCC 29212 = assay: MIC, agar dilution
E. coli UBMS 90-4 Tet M = assay: microbe, parasite or virus in culture
Enterococcus 12201 = assay: MIC, agar dilution
[9] = E. coli UBMS 88-1 Tet B, 18 hours at 35° C.

CN(C)c1cc(NC(=O)C2CCCN2C(=O)C(F)(F)F)c(O)c2c1CC1CC3[C@H](N(C)C)C(O)=C(C(N)=O)C(=O)[C@@]3(O)C(O)=C1C2=O.Cl.Cl (stereo partly drawn) [A, [7S-(7alpha,10aalpha)]-N-[9-(Aminocarbonyl)4,7-bis(dimethylamino)-5,5a,6,6a,7,10,10a, 12-octahydro-l,8,10a,ll-tetrahydroxy-10,12-dioxo-2-naphthacenyl]-l-(trifluoroacetyl)-2-pyrrolidinecarboxamide dihydrochloride]
MIC (E. coli UBMS 88-1 Tet B; [9]): 8 mg/L | MIC (E. coli J3272 Tet sens.): 8 mg/L | MIC (E. coli PRP1 Tet A; E. coli PRP1 Tet A): > 32 mg/L | MIC ([1]; E. coli MC 4100 TNIOC Tet B): 8 mg/L | MIC (E. coli J3272 Tet C; E. coli J3272 Tet C): 8 mg/L | MIC (E. coli UBMS 89-1 Tet M; E. coli UBMS 89-1 Tet M): 8 mg/L | MIC ([2]; E. coli UBMS 89-2 Tet sens.): 8 mg/L | MIC (E. coli J2175; E. coli J2175): 8 mg/L | MIC (E. coli BAJ9003 IMP MUT; E. coli BAJ9003 IMP MUT): 1 mg/L | MIC (E. coli UBMS 90-5): 4 mg/L | MIC (E. coli #311 (MP); E. coli #311 (MP)): 8 mg/L | MIC (E. coli ATCC 25922; E. coli ATCC 25922): 8 mg/L | MIC (E. coli J3272 Tet D; E. coli J3272 Tet D): 2 mg/L | MIC (S. mariescens FPOR 8733): > 32 mg/L | MIC ([3]; Ps. acruginosa ATCC 27853): > 32 mg/L | MIC (S. aureus NEMC 8769; S. aureus NEMC 8769): 1 mg/L | MIC (S. aureus UBMS 88-4; S. aureus UBMS 88-4): 4 mg/L | MIC ([4]; S. aureus UBMS 88-5 Tet M): 4 mg/L | MIC ([5]; S. aureus UBMS 88-7 Tet K): 16 mg/L | MIC ([6]; S. aureus UBMS 90-1 Tet M): 8 mg/L | MIC (S. aureus UBMS 90-3; S. aureus UBMS 90-3): 1 mg/L | MIC ([7]; S. aureus UBMS 90-2 Tet M): 2 mg/L | MIC (S. aureus IVES 2943; S. aureus IVES 2943): 16 mg/L | MIC (S. aureus ROSE (MP); S. aureus ROSE (MP)): 32 mg/L | MIC (S. aureus SMITH (MP); S. aureus SMITH (MP)): 2 mg/L | MIC (S. aureus IVES 1 983; S. aureus IVES 1 983): 16 mg/L | MIC (S. aureus ATCC 29213; S. aureus ATCC 29213): 4 mg/L | MIC ([8]; S. hemolyticus AVHAH 88-3): 8 mg/L | MIC (E. faecalis ATCC 29212; E. faecalis ATCC 29212): 2 mg/L

CN(C)[C@@H]1C(=O)C(C(N)=O)=C(O)[C@@]2(O)C(=O)C3=C(O)c4c(O)cccc4[C@@](C)(O)[C@H]3C[C@@H]12 [N, Tetracycline]
MIC (E. coli UBMS 88-1 Tet B; Escherichia coli, UBMS881TETB, 18 h): > 32 mg/L | MIC (E. coli J3272 Tet sens.; Escherichia coli, 18 h, read-out: MIC): 0.5 mg/L (≈ 1.13 µM) | MIC (E. coli PRP1 Tet A; Escherichia coli, PRP1TETA, 18 h): 32 mg/L (≈ 72 µM) | MIC ([1]; Escherichia coli, 18 h): > 32 mg/L | MIC (E. coli J3272 Tet C; Escherichia coli, J3272TETC, 18 h): > 32 mg/L | MIC (E. coli UBMS 89-1 Tet M; Escherichia coli, UBMS891TETM, 18 h): 8 mg/L (≈ 18 µM) | MIC ([2]; Escherichia coli, 18 h): 1 mg/L (≈ 2.25 µM) | MIC (E. coli J2175; Escherichia coli, J2175, 18 h): 1 mg/L (≈ 2.25 µM) | MIC (E. coli BAJ9003 IMP MUT; Escherichia coli, BAJ9003IMPMUT, 18 h): 0.25 mg/L (≈ 0.563 µM) | MIC (E. coli UBMS 90-4 Tet M; Escherichia coli, UBMS904TETM, 18 h): 16 mg/L (≈ 36 µM) | MIC (E. coli UBMS 90-5; Escherichia coli, UBMS905, 18 h, read-out: MIC): 1 mg/L (≈ 2.25 µM) | MIC (E. coli #311 (MP); Escherichia coli, 18 h): 1 mg/L (≈ 2.25 µM) | MIC (E. coli ATCC 25922; Escherichia coli, ATCC25922, 18 h): 0.5 mg/L (≈ 1.13 µM) | MIC (E. coli J3272 Tet D; Escherichia coli, J3272TETD, 18 h): > 32 mg/L | MIC (S. mariescens FPOR 8733; 18 h, read-out: MIC): 32 mg/L (≈ 72 µM) | MIC ([3]; 18 h): 8 mg/L (≈ 18 µM) | MIC (S. aureus NEMC 8769; Staphylococcus aureus, NEMC8769, 18 h): 0.03 mg/L (≈ 0.0675 µM) | MIC (S. aureus UBMS 88-4; Staphylococcus aureus, UBMS884, 18 h): 0.06 mg/L (≈ 0.135 µM) | MIC ([4]; Staphylococcus aureus, UBMS885TETM, 18 h): > 32 mg/L | MIC ([5]; Staphylococcus aureus, UBMS887TETK, 18 h): > 32 mg/L | MIC ([6]; Staphylococcus aureus, UBMS901TETM, 18 h): 32 mg/L (≈ 72 µM) | MIC (S. aureus UBMS 90-3; Staphylococcus aureus, UBMS903, 18 h): 0.06 mg/L (≈ 0.135 µM) | MIC ([7]; Staphylococcus aureus, UBMS902TETM, 18 h): 32 mg/L (≈ 72 µM) | MIC (S. aureus IVES 2943; Staphylococcus aureus, IVES2943, 18 h): > 32 mg/L | MIC (S. aureus ROSE (MP); Staphylococcus aureus, 18 h): > 32 mg/L | MIC (S. aureus SMITH (MP); Staphylococcus aureus, 18 h): 0.06 mg/L (≈ 0.135 µM) | MIC (S. aureus IVES 1 983; Staphylococcus aureus, IVES1983, 18 h): > 32 mg/L | MIC (S. aureus ATCC 29213; Staphylococcus aureus, ATCC29213, 18 h): 0.06 mg/L (≈ 0.135 µM) | MIC ([8]; Streptococcus pyogenes, AVHAH883, 18 h): 0.5 mg/L (≈ 1.13 µM) | MIC (Enterococcus 12201; Enterococcus, 12201, 18 h): 32 mg/L (≈ 72 µM) | MIC (E. faecalis ATCC 29212; Enterococcus faecalis, ATCC29212, 18 h): 8 mg/L (≈ 18 µM)

[4S-(4alpha,12aalpha)]-9-[(Bromoacetyl)amino]-4,7-bis(dimethylamino)-1,4,4a,5,5a,6, 11,12a-octahydro-3,10,12,12a-tetrahydroxy-1, 11-dioxo-2-naphthacenecarboxamide dihydrochloride
MIC (E. coli J3272 Tet sens.): 16 mg/L | MIC (E. coli PRP1 Tet A; E. coli PRP1 Tet A): > 32 mg/L | MIC ([1]; E. coli MC 4100 TNIOC Tet B): > 32 mg/L | MIC (E. coli J3272 Tet C; E. coli J3272 Tet C): > 32 mg/L | MIC (E. coli UBMS 89-1 Tet M; E. coli UBMS 89-1 Tet M): 4 mg/L | MIC ([2]; E. coli UBMS 89-2 Tet sens.): 32 mg/L | MIC (E. coli J2175; E. coli J2175): 32 mg/L | MIC (E. coli UBMS 90-5): 16 mg/L | MIC (E. coli #311 (MP); E. coli #311 (MP)): 8 mg/L | MIC (E. coli ATCC 25922; E. coli ATCC 25922): 16 mg/L | MIC (E. coli J3272 Tet D; E. coli J3272 Tet D): 32 mg/L | MIC (S. mariescens FPOR 8733): > 32 mg/L | MIC ([3]; Ps. acruginosa ATCC 27853): > 32 mg/L | MIC (S. aureus NEMC 8769; S. aureus NEMC 8769): 0.12 mg/L | MIC ([4]; S. aureus UBMS 88-5 Tet M): 1 mg/L | MIC ([6]; S. aureus UBMS 90-1 Tet M): 1 mg/L | MIC (S. aureus UBMS 90-3; S. aureus UBMS 90-3): 0.5 mg/L | MIC (S. aureus IVES 1 983; S. aureus IVES 1 983): 4 mg/L | MIC (S. aureus ATCC 29213; S. aureus ATCC 29213): 0.5 mg/L | MIC (Enterococcus 12201; Enterococcus 12201): 1 mg/L | MIC (E. faecalis ATCC 29212; E. faecalis ATCC 29212): 0.5 mg/L

[7S-(7alpha,10aalpha)]-N-[9-(Aminocarbonyl)-4,7-bis(dimethylamino)-5,5a,6,6a,7,10,10a,12-octahydro-1,8,10a,11-tetrahydroxy-10,12-dioxo-2-naphthacenyl]-4-thiomorpholineacetamide dihydrochloride [F]
MIC (E. coli UBMS 88-1 Tet B; [9]): > 32 mg/L | MIC (E. coli J3272 Tet sens.): > 32 mg/L | MIC (E. coli PRP1 Tet A; E. coli PRP1 Tet A): > 32 mg/L | MIC ([1]; E. coli MC 4100 TNIOC Tet B): > 32 mg/L | MIC (E. coli J3272 Tet C; E. coli J3272 Tet C): > 32 mg/L | MIC (E. coli UBMS 89-1 Tet M; E. coli UBMS 89-1 Tet M): > 32 mg/L | MIC ([2]; E. coli UBMS 89-2 Tet sens.): > 32 mg/L | MIC (E. coli J2175; E. coli J2175): > 32 mg/L | MIC (E. coli UBMS 90-4 Tet M; E. coli UBMS 90-4 Tet M): > 32 mg/L | MIC (E. coli UBMS 90-5): > 32 mg/L | MIC (E. coli #311 (MP); E. coli #311 (MP)): > 32 mg/L | MIC (E. coli ATCC 25922; E. coli ATCC 25922): 32 mg/L | MIC (E. coli J3272 Tet D; E. coli J3272 Tet D): 16 mg/L | MIC (S. mariescens FPOR 8733): > 32 mg/L | MIC ([3]; Ps. acruginosa ATCC 27853): > 32 mg/L | MIC (S. aureus UBMS 88-4; S. aureus UBMS 88-4): 1 mg/L | MIC ([5]; S. aureus UBMS 88-7 Tet K): 4 mg/L | MIC ([6]; S. aureus UBMS 90-1 Tet M): 1 mg/L | MIC (S. aureus UBMS 90-3; S. aureus UBMS 90-3): 1 mg/L | MIC ([7]; S. aureus UBMS 90-2 Tet M): 1 mg/L | MIC (S. aureus IVES 2943; S. aureus IVES 2943): 4 mg/L | MIC (S. aureus ROSE (MP); S. aureus ROSE (MP)): 8 mg/L | MIC (S. aureus IVES 1 983; S. aureus IVES 1 983): 4 mg/L | MIC (S. aureus ATCC 29213; S. aureus ATCC 29213): 1 mg/L | MIC ([8]; S. hemolyticus AVHAH 88-3): 4 mg/L | MIC (Enterococcus 12201; Enterococcus 12201): 1 mg/L | MIC (E. faecalis ATCC 29212; E. faecalis ATCC 29212): 0.25 mg/L
